Measured values from ChEMBL document CHEMBL1150605, “Isolation of a new mycalolide from the marine sponge Mycale izuensis” (J Nat Prod, 2002).
Converted amounts (≈) assume the structure as drawn.

Tested on: HeLa
Experiment: Cytotoxicity against human HeLa cells
Type: functional, cell-based

Structure (SMILES): CO[C@H]1C/C=C/c2nc(co2)-c2nc(co2)-c2nc(co2)[C@@H](OC)[C@@H](C)C(=O)/C=C/C[C@H](O)CC(=O)O[C@@H](C[C@H](OC)[C@@H](C)CC[C@@H](O)[C@@H](C)[C@H](O)[C@H](C)/C=C/N(C)C=O)[C@@H]1C [30,32-DIHYDROXYMYCALOLIDE A]
- IC50: 2.6 ng/mL (≈ 2.99 nM)
